According to patent US20020155172A1, “Methods and compounds for decreasing cell toxicity or death” (priority 2000, published 2002):
Peptide text beside a SMILES is read from it. * marks the point of attachment. Cbz = O=C(OCc1ccccc1)*; CH2F = FC*

Key:
Assay type in all cases: cell-based
[1] = tested on: HeLa cells transfected with Q79-GFP; assay: Cellular ATP levels (ATPLite) in Q79 expressing HeLa cells; details: Q79-GFP, assayed 48 hours after transfection
Method: We also investigated whether Congo red prevented other cellular events during cell death, including ATP depletion, caspase activation, and protein synthesis inhibition. HeLa cells were transfected with the Q79-GFP construct. Forty-eight hours later, the viability of cells expressing expanded polyglutamine repeats was determined by measuring cellular ATP levels, suing an ATPLite™ kit, according to the directions provided by the manufacturer (Packard, Co.) (FIG. 5A).
To determine the effect of Congo red (100 μM) on polyglutamine-induced cell toxicity. HeLa cells were transiently transfected with Q79-GFP, and six hours later were administered various concentrations of Congo red. Cell viability was assayed 72 hours after transfection, by measuring the level of ATP in each sample. ATP levels in cells expressing Q79 were determined by using the ATPLite™ kit as recommended by the manufacturer (Packard, Inc.). Briefly, cells were transfected with Q79 and treated 6 hours after transfection. Forty-two hours later, the levels of ATP were determined. (FIG. 5C).
(§1) A high-throughput method for identifying compounds that decrease cell toxicity or death has been designed. In this method, cells were seeded at 2×10^5 cells in 100 mm dishes. The next day the plated cells were transiently transfected with a plasmid encoding an expanded polyglutamine repeat, for example, Q79. Three hours later, transfection efficiency was assessed. Plates containing cells having 10-20% transfection efficiency at this 3 hour time point were trypsinized and re-plated at 600 or at 1500 cells per well in 384 well plates with clear bottoms. After 6 hours, the candidate compounds were added to the multi-well plates. The cells were cultured for 48 hours and ATP levels were determined using an ATPLite™ kit. Data was then expressed in either arbitrary units, or as relative ratio of ATP levels in Q79 transfected cells in compound-treated relative to vehicle-treated samples.
Derivatives of Congo red (commercially available from Sigma/Aldrich) were tested for their ability to alter cell toxicity and death by measuring ATP depletion and luciferase expression. The assay was carried out as described above for the high-throughput identification of compounds. Briefly, HeLa cells were transiently transfected with a Q79/GFP plasmid and were subsequently treated with various concentrations of Congo red, or 25 μM of each of Direct Orange 6, Direct Red 1, Direct Orange 1, Direct Black 51, Direct Orange 8, Direct Yellow 26, Direct Yellow 28, or Direct Blue 158. Drug treatment continued for 6 hours and then 48 hours later, ATP levels were measured in these cells and compared to the ATP levels in cells that were transiently transfected with GFP only, and also received the compound.

[2] = tested on: HeLa cells expressing Q79 expanded polyglutamine repeats; assay: Cell death induced by TNF-α/CHX, Fas/CHX or H2O2; details: 100 μM, one hour before the inducing agent; cell death 48 hours later
Method: FIG. 5F is a graph of the effects of Congo red, ZVAD, or vehicle (NT) on cell death when the cells are induced to die by receptor mediated pathways (TNF-α/cycloheximide (CHX), Fas/cycloheximide (CHX)), or necrosis (hydrogen peroxide).
HeLa cells expressing Q79 expanded polyglutamine repeats were treated with 100 μM Congo red, or 100 μM ZVAD (a positive control) for one hour prior to the addition of the apoptosis-inducing agent, and cell death was determined 48 hours later. […] Finally we tested whether Congo red can inhibit apoptosis induced by overexpression of caspase-1, -8, or -11.

[3] = tested on: non-transfected HeLa cells; assay: Total cellular protein degradation; details: Congo red 100 μM, ZVAD 100 μM, MG132 10 μM; H3-tyrosine release, 0 to 180 minutes
Method: FIG. 8C is a graph of the effect of effect of Congo red, ZVAD, or the proteosome inhibitor MG132 on total cellular protein degradation in non-transfected HeLa cells.
To rule out the possibility that Congo red may have an effect on protein degradation in general, we tested the effect of Congo red on proteosome degradation. Rates of total cellular protein degradation experiments, from cells seeded in 12 well dishes at 2×10^4, treated with Congo red (100 μM), ZVAD (100 μM), or the proteosome inhibitor MG132 (10 μM) and labeled with 5 μCi/ml of H^3-tyrosine for 1 hour. One hundred microliter culture medium aliquots were collected at 0, 30, 60, 90, 120, and 180 minute time points, and the levels of H^3-tyrosine were determined using an LS6000 scintillation counter (Beckman, Co).

[4] = tested on: Q79 transiently transfected HeLa cells; assay: Cell protective effects by ATP depletion tests and luciferase activity analysis; details: 5 μM or 25μM of the test compound
Method: as §1
The structures and ChemBridge library product numbers for the compounds that tested positively in the ATP depletion assays and luciferase assays are shown in FIGS. 14A-14L. In addition, derivatives of some of the identified compounds, as shown in FIGS. 14A-14F, were identified and tested for their cell protective effects, as assayed by ATP depletion tests and luciferase activity analysis after administration of Q79 transiently transfected HeLa cells with 5 μM or 25μM of the test compound. […]

## COC(=O)C[C@H](NC(=O)[C@H](C)NC(=O)[C@@H](NC(=O)OCc1ccccc1)C(C)C)C(=O)CF [ZVAD, reference compound] (Cbz-Val-Ala-Asp(OMe)-CH2F)
[1]
  ATP depletion upon expanded polyglutamine expression: inhibited
[2]
  cell death induced by TNF-α/CHX, Fas/CHX, or H2O2: effective in inhibiting both TNF-α- and Fas-induced apoptosis
[3]
  general protein degradation: neither Congo red nor ZVAD had any effect

## C/C(=N\NC(=S)N1CCCCC1)c1ccccc1 [PQIB]
[4]
  cell protective effect (ATP depletion tests and luciferase activity analysis): cytoprotective

## CC(=O)Nc1ccc(-c2ccc(NC(C)=O)cc2)cc1 [PQIG]
[4]
  cell protective effect (ATP depletion tests and luciferase activity analysis): cytoprotective
